Reference: patent publication US20240148728A1, “NOVEL METHOD TO BLOCK IN[…] DEATH AND IL-1BETA SECRETION CAUSED BY […] UV I[…] GENETIC AND CHEMICAL INHIBITORS OF ZAKA AND THE NLRP1 INFLAMMASOME” (priority 2021, published 2024)
“Also recorded” adds a separate entry of the source.

Key:
[1] = tested on: immortalized keratinocytes (N-TERT); assay: Pyroptosis / apoptosis in N-TERT keratinocytes (morphology, ASC-GFP, PI, Annexin V, immunoblot); format: cell-based, human
Source text: (§1) The following antibodies were used in this study: cleaved PARP1 (Abclonal, #WH162766), Cleaved CASP3 (Abclonal, #WH154646), Full length GSDMD-FL (Abcam, #ab210070), IL1β p17 specific (CST, #83186S), CARD8 (Abcam, CARD8-NT: ab19485, CARD8-CT: ab241186), DPP9 (Abcam, ab226334), c-Myc (Santa Cruz Biotechnology, #sc-40), HA tag (Santa Cruz Biotechnology, #sc-805), GAPDH (Santa Cruz Biotechnology, #sc-47724), ASC (Adipogen, #AL-177), CASP1 (Santa Cruz Biotechnology, #sc-622), 11_1B (R&D systems, #AF-201), FLAG (SigmaAldrich, #F3165), NLRP1 (R&D systems, #AF6788), IL18 (Abcam ab207324), cleaved GSDMD-NT (Asp275) (Cell Signaling Technology, #36425), RPL31 (Abclonal, #WH162766), CASP7 (Abcam, ab255818), CASP8 (Abcam, ab32397), cleaved CASP3 (Cell Signaling Technology, #9664). All horseradish peroxidase (HRP)— conjugated secondary antibodies were purchased from Jackson Immunoresearch (goat anti-mouse IgG: 115-035-166; goat anti-rabbit IgG: 111-035-144; and donkey anti-goat IgG: 705-005-147). Blue-Native PAGE was carried out using the Native-PAGE system (ThermoFisher) with 10-20 μg of total lysate. For SDS-PAGE using whole cell lysates, cells were resuspended in tris-buffered saline 1% NP-40 with protease inhibitors (Thermo Scientific, #78430). Protein concentration was determined using the Bradford assay (Thermo Scientific, #23200) and […] of protein loaded, a part from cleaved GSDMD-NT visualisation where […] of protein was used. All primary antibodies were used at 250 ng/ml. Visualisation of ASC oligomerization was previously described (Robinson et al., 2020). For analysis of IL1β and IL-18 cleavage in the media by immunoblotting, samples were concentrated using filtered centrifugation (Merck, Amicon Ultra, #UFC5003BIK). Protein samples were run using immunoblotting, and then visualized using a ChemiDoc Imaging system (Bio-Rad). PhosTag SDS-PAGE was carried out using homemade 10% SDS-PAGE gel, with addition of Phos-tag Acrylamide (Wako Chemicals, AAL-107) to a final concentration of 30 μM and manganese chloride(II) (Sigma-Aldrich, #63535) to 60 μM.
N-TERT-ASC-GFP cells were seeded at a cell density of 3000 cells/well of a 96 black well plate (PerkinElmer, CellCarrier-96 Ultra, #6055300). The next morning cells were treated with chemicals for 6 h or treated in the evening for 24 h before staining. 1 hour before observing the cells on the microscope the cells were stained with 1 μg/ml dilution of propidium iodide (PI, Abcam #ab14083), 10 ng/ml dilution of Hoechst 33342 (Life Technologies, #H21492) or stained with Annexin V Alexa Flour 647 (Life technologies, #A23204) according to the manufacturer's protocol. Stained cells were then imaged on a high content screening microscope (Perkin Elmer Operetta CLS imaging system). Images were then stored and analyzed using the Harmony software (Version 6). Fluorescent and brightfield images acquired on the Operetta high content screening microscope were further analyzed using a scoring system to categorize the percentages of live, apoptotic and pyroptotic cells. For 3 fields of view per treatment the number of live cells per field was counted from the merge of the brightfield and ASC-GFP channels. Only cells which contained ASC-GFP throughout the cytoplasm and nucleus were classed as “live”. The number of pyroptotic cells was calculated using the merge of the brightfield and ASC-GFP channels. Only the cells with GFP specks were classed as “pyroptotic”. The number of apoptotic cells was calculated using the merge of the brightfield, ASC-GFP and Annexin V channels. Cells that were stained positive for Annexin V but without a GFP speck were classified as “apoptotic”. Images of ASC-GFP specks were acquired in 3 random fields in 4′,6-diaminidino-2-phenylindole (DAPI, 358 nm/461) and GFP (469 nm/525 nm) channels using the EVOS microscope (FL Auto M5000, #AM F5000) according to the manufacturer's protocol. […]

[2] = tested on: primary human keratinocytes; assay: Inflammasome-driven pyroptosis in primary human keratinocytes; format: cell-based; conditions: keratinocytes freshly isolated from a healthy donor
[3] = tested on: aortic endothelial cells (HAECs); assay: Inflammasome activation and pyroptosis in aortic endothelial cells; format: cell-based, human; conditions: ANS 1 μM
human DPP9 = molecular target: T1, human DPP9 (Homo sapiens, UniProt Q86TI2); assay: DPP8/9 activity assay (in vitro proteolysis assay); format: biochemical; conditions: Gly-Pro-AMC hydrolysis
T1 construct: expressed in transfected cells; host or cells: 293T
T1 sequence (Q86TI2 whole entry): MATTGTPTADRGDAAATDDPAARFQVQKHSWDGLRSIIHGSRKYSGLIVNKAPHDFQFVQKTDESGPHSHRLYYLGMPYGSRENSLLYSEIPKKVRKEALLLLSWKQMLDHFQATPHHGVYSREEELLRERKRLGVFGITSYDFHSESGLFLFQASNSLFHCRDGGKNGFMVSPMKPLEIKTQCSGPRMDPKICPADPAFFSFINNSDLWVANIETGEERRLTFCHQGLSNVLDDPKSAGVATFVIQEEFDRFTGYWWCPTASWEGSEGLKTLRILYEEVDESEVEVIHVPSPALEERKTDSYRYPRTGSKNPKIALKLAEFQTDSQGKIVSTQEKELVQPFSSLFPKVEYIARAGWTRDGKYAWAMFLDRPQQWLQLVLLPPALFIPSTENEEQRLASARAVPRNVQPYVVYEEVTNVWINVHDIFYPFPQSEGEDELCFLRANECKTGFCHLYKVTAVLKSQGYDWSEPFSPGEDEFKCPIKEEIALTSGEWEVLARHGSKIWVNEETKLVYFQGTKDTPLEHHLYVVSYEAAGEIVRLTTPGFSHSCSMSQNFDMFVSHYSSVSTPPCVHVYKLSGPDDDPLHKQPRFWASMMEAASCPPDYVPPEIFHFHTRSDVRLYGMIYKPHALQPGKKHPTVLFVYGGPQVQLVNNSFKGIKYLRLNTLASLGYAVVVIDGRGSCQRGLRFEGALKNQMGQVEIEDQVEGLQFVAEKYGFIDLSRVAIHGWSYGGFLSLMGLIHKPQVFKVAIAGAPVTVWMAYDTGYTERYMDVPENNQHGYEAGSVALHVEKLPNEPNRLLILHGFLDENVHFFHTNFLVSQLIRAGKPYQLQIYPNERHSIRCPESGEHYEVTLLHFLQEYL
Method: 293T cells were transfected with vector or wild-type DPP9. DPP9-transfected cells were treated with VbP, Anisomycin (ANS) or Harringtonine (HTN). Cells were lysed in PBS 1% Tween-20, 48 h after transfection and treatments. 0.3 μg of total lysate was then incubated with 0.1 μM uGly-Pro-AMC fluorescence substrate. AMC fluorescence was measured after 30 mins at 25° C. in a 50 μl reaction every minute on a spectrometer and the rate of Gly-Pro-AMC hydrolysis per minute calculated.

NLRP1 = assay: Ribosome-bound NLRP1, sucrose cushion; format: cell-based, human; conditions: N-TERT cell lysates
Method: Crude cellular ribosome fractions were purified by sedimentation through a 30% sucrose cushion or a 10-30% sucrose gradient. Cells were lysed for 20 min in 15 mM Tris, pH 7.5, 0.5% NP-40, 6 mM MgCl2, 300 mM NaCl, with 1× protease inhibitors before centrifugation for 10 min at 12000 g, 4° C. The supernatant was then carefully layered onto a 30% sucrose cushion 30% sucrose in 20 mM Tris, pH 7.5, 2 mM MgCl2, 150 mM KCl and ultra-centrifuged at 34,000 rpm for 24 h using Beckman Coulter Ultracentrifuge, Optima XE. Pellets then washed three times with ice cold PBS and suspended in 100 mM KCl, 5 mM MgCl2, 20 mM HEPES, pH 7.6, 1 mM DTT and 10 mM NH4Cl. Purified ribosome fractions were then analysed by immunoblot.

NLRP1^DR = assay: NLRP1 PYD-DR1 / NLRP1^DR phosphorylation (GFP fusion, immunoblot, PhosTag SDS-PAGE) in N-TERT cells; format: cell-based, human
Source text: as §1
Cells were directly harvested using Laemmli buffer, lysed with an ultrasonicator, and loaded into the Phos-tag gel to run. Once the run was completed, the polyacrylamide gel was washed in transfer buffer with 10 mM EDTA twice, subsequently washed without EDTA twice, blotted onto 0.45 μm PVDF membranes (Bio-rad), blocked with 3% milk, and incubated with primary and corresponding secondary antibodies.

In the case of `COc1ccc(C[C@H]2NC[C@H](O)[C@H]2OC(C)=O)cc1` [ANS, Anisomycin], the “mode of cell death (apoptosis / pyroptosis)” value ([1]; Annexin V staining and PI inclusion, immunoblot markers) is reported as “caused both apoptosis and pyroptosis; also recorded: activate both forms of cell death”, the “mode of cell death in NLRP1 KO cells” value ([1]; NLRP1 KO N-TERT, Annexin V and PI staining) is reported as “died exclusively through apoptosis” and the “apoptotic cell death (cleaved caspase-3 and PARP-1)” value ([1]; immunoblot) is reported as “activated classical apoptotic cell death”. For the same compound, the “biochemical hallmarks of inflammasome activation (ASC polymerization, GSDMD-NT, IL1β p17 in media)” value ([1]; immunoblot) was “displayed cardinal biochemical hallmarks of inflammasome activation”, the “morphological hallmarks of inflammasome activation and pyroptotic cell death” value ([1]; membrane ballooning, ASC-GFP specks, PI uptake) was “rapidly induced the morphological hallmarks of inflammasome activation and pyroptotic cell death” and the “fraction of pyroptotic cells” value ([1]; single cell level, compared with VbP) was “comparable to that induced by VbP”. For the same compound, the inflammasome-driven pyroptosis [2] was “induce inflammasome-driven pyroptosis was also confirmed”, the “canonical inflammasome activation and pyroptosis” value [3] was “underwent canonical inflammasome activation and pyroptosis” and the “catalytic activity of human DPP9” value (human DPP9) was “had no effect on the catalytic activity of human DPP9”. For the same compound, the “level of ribosome-bound NLRP1” value (NLRP1) was “dramatically increased the level of ribosome-bound NLRP1”, the “NLRP1^DR hyperphosphorylation” value (NLRP1^DR; NLRP1DR-GFP in N-TERT cells, PhosTag SDS-PAGE) was “became further phosphorylated” and the “band shift (phosphorylation) of PYD-DR1-GFP” value (NLRP1^DR; NLRP1 KO N-TERT cells expressing GFP-tagged PYD-DR1) was “band shift in PYD-DR1-GFP”.
